“Also recorded” adds a separate entry of the source.
Tests used:
[1] = MC3 single cell necrosis in rat liver and liver enzymes (ALT, AST); assay type: in vivo; details: rats, 0.3 mg/kg MC3-based LNP
Procedure: FIG. 37 is a series of graphs illustrating MC3 single cell necrosis in rat liver and liver enzyme. The top row is a pair of images of livers of rats administered with 0.3 mg/kg of a […] (LNP) not containing an mRNA (right) and PBS (phosphate buffered saline) as a control (left). The bottom row is a pair of graphs showing expression of ALT (left) and AST(right) in the liver following administration of a 0.3 mg/kg of a MC3-based LNP containing an mRNA.

female CD-1 mice = assay: Luciferase expression after subcutaneous administration of lipid/mRNA formulations (whole body BLI); assay type: in vivo; details: 0.5 mpk
Procedure: The effect of the lipids of the disclosure on protein expression upon subcutaneous administration was studied. Formulations containing lipids of the disclosure and an mRNA expressing luciferase or hEPO were administered subcutaneously to female CD-1 mice at 0.5 mpk. Expression levels were obtained via whole body luminescent imaging (BLI) at 3, 6 and 24 hours after injection and expression levels in liver, spleen and at the injection site were evaluated ex vivo after 24 hours. […] See also Tables 35 and 36, and FIGS. 19 and 27.
Table 35 summarizes the luciferase expression levels using various nanoparticle compositions of the disclosure, and the luciferase expression levels using various nanoparticle compositions 6f the disclosure as compared to the luciferase expression level using an MC3 formulation after subcutaneous administration, as described above.

[2] = LNP formulation characterization (particle size, PDI, RNA encapsulation, endotoxin); assay type: physicochemical; details: ± SD within one assay run
Procedure: Preparation of LNP formulations: Lipids were dissolved in ethanol at molar ratios of 50:10:38.5:1.5 (ionizable lipid: DSPC: cholesterol:PEG-lipid). The lipid mixture was combined with a 6.25 mM sodium acetate buffer (pH 5) containing mRNA at a ratio of 3:1 (aqueous:ethanol) using a microfluidic mixer. Formulations were dialyzed against phosphate buffered saline (pH 7.4) in dialysis cassettes for at least 18 hours. Formulations were concentrated via centrifugal filtration, passed through a 0.22-μm filter and stored at 4° C. until use. […] The apparent pKa of the LNP formulation was determined via a TNS assay.

[3] = Lipid clearance: mouse liver tissue level and % dose remaining in liver after intravenous administration; assay type: in vivo
cynomolgus monkeys = assay: Repeat dose hEPO expression in cynomolgus monkeys, once weekly for 5 weeks; assay type: in vivo, cynomolgus monkey; details: 0.2 mg/kg hEPO mRNA, 60-minute intravenous infusion, n=4
Procedure: (§1) NHP studies: Nonhuman primate studies were conducted using naïve cynomolgus monkeys (cynos), 2-4 years old, weighing 2-6 kg. No treatment randomization or blinding methods were used for any of the animal studies. Sample sizes were determined by the resource equation method. For injection, mRNA-LNPs in phosphate buffered saline (PBS) were administered by 60-minute intravenous infusion using a temporary indwelling catheter inserted in a peripheral vein.
hEPO ELISA for NHP samples: Human Epo levels were measured using a human erythropoietin immunoassay. Cytokines levels were measured using a non-human primate cytokine kit.
The level of expression provided by LNPs of the disclosure in a repeat dose experiment in primates was evaluated. A 0.2 mg/kg dose of hEPO mRNA in a compound 18-based LNP was delivered via a 60-minute intravenous infusion to cynomolgus monkeys (n=4) once weekly for 5 weeks.

mouse liver tissue = assay: Disappearance of parent lipid and primary metabolite from mouse liver after 0.25 mg/kg mRNA on days 1, 8 and 15; assay type: in vivo
Procedure: In vitro metabolite identification studies using compound 18 were also performed. […] The disappearance of parent compound 18 and the primary metabolite, compound 166, from mouse liver tissue was measured after dosing 0.25 mg/kg mRNA on days 1, 8, and 15.

ApoE knockout mice = assay: Expression study in ApoE knockout mice; assay type: in vivo; details: compound 18 based LNPs
hEPO mRNA = assay: hEPO expression after subcutaneous administration to mice; assay type: in vivo, CD-1 mice; details: 6 hr. time point, relative to MC3
Procedure: The numbers 1-11 in this figure correspond to MC3, PBS, and Compounds 18, 25, 48, 49, 111, 60, 168, 207, and 233, respectively.
FIG. 27 is a graph showing the hEPO mRNA expression in CD1-mice measured 3 h (left block), 6 h (middle block) and 24 h (right block) after subcutaneous administration of various nanoparticle compositions at 0.5 mpk. Numbers 1-9 refer to compositions containing an mRNA expressing hEPO and the following: 1: PBS, 2: Compound 18, 3: Compound 30; 4: Compound 96; 5: Compound 151; 6: Compound 98; 7: Compound 163; 8: Compound 164; 9: Compound 165.

in vivo = details: male, Sprague-Dawley, rat, iv
Procedure: LNP administration to animals: mRNA-LNPs diluted in phosphate buffered saline (PBS) were injected intravenously (5 mL/kg) into female CD-1 female mice (18 to 22 g in body weight) and male Sprague-Dawley rats (225-250 g in body weight) via the tail vein using 29 g, 3/10 cc insulin syringes (mice) or 27 g, 1 mL syringes (rats) after gentle warming of the animals using a heat lamp for 3 minutes.
Protein was precipitated and analyzed against calibration standards prepared in matching blank. Chromatographic separation and quantification was accomplished with a LC-MS/MS System. Samples were injected and separated via HPLC A triple-quadrupole MS/MS system operated in positive ion mode was used for signal detection.
PK analysis of the individual plasma and tissue concentration data was performed using anon-validated program (Phoenix WinNonlin®, Version 7.0 (Pharsight Corp., Mountain View, Calif.)). Kinetic parameters were estimated using a noncompartmental model (Plasma (200-202), Uniform weighting, extravascular dosing with sparse sampling). The AUG was calculated using the linear trapezoidal rule. All derived parameters are reported to 3 significant figures with the exception of time to peak concentration (Tmax) and halflife (HL), which are reported to one decimal place. No further statistical analyses were performed on the plasma concentration data or derived pharacokinetic parameters.

cynomolgus monkey = assay: One-month toxicological evaluation with weekly dosing in cynomolgus monkey; assay type: in vivo
Procedure: as §1
Serum ALT and AST levels: Samples were analyzed using a Modular Analytics analyzer.
Serum C5b9 levels: C5b9 sample analysis was performed using an ELISA method. The kit used was Human C5b-9 ELISA Set and Reagent Set B from BD Bioscience. Study samples were analyzed in singlicate diluted 1/100.
bDNA for measurement of mRNA levels: mRNA sample analysis (bDNA method) was performed using the QuantiGene® 2.0 Reagent System kit from Affymetrix. Study samples were lysed prior to analysis using the QuantiGene Sample Processing Kit (Blood samples). Study samples were analyzed in duplicate diluted between 1/100 and 1/1250000.
Next, tolerability and safety of the compound 18-based LNPs in vivo was tested. A full toxicological evaluation of compound 18-based LNPs in both Sprague Dawley rat and cynomolgus monkey was performed using a standard one-month study with weekly dosing at three dose levels in each species. Rats were dosed at 0.05, 0.5, and 2 mg/kg and a non-human primates was dosed at 0.1, 0.3, and 1 mg/kg. LNP-related toxicities associated with MC3-based LNP systems are generally associated with immunological (cytokine and complement activation) and hepatic injury. […] FIGS. 32 and 33 highlight the day 30 levels of alanine transferase (ALT, FIG. 32A) and aspartate aminotransferase (AST, FIG. 32B), two indicators of liver damage.

| SMILES | ALT, AST and liver pathology [1] | Lipid/MC3 AUC ratio (luciferase) (female CD-1 mice) | Luciferase expression AUC (female CD-1 mice; BLI at 3, 6 and 24 hours) | % Encapsulation [2] [%] | PDI (polydispersity index) [2] | % Dose Remaining in Liver 6 h ([3]; first column headed 6 h (Table 3D)) [%] | % Remaining dose at 6 h ([3]; mouse liver, 6 h) [%] | % Remaining dose at 24 h ([3]; mouse liver, 24 h) [%] | concentration at 6 h ([3]; mouse, liver, 0.5 mg/kg, 6 h) [ng/g] | concentration at 24 h ([3]; mouse, liver, 0.5 mg/kg, 24 h) [ng/g] | % Dose Remaining in Liver 6 h ([3]; second column headed 6 h (Table 3D)) [%] | hEPO exposure over repeat dosing (cynomolgus monkeys) | clearance from mouse liver tissue (mouse liver tissue) | expression in ApoE knockout mice (ApoE knockout mice) | Novel lipid/MC3 expression ratio, s.c. hEPO 0.5 mpk (hEPO mRNA) | half-life (in vivo) [h] | monocyte chemo-attractive protein (MCP-1) (cynomolgus monkey) | ALT and AST levels, day 30 (cynomolgus monkey; 1 mg/kg dose) | circulating mRNA levels after each dose (cynomolgus monkey; bDNA) | toxicological findings (cynomolgus monkey; weekly dosing one month, 0.1, 0.3 and 1 mg/kg) |
| --- | --- | --- | --- | --- | --- | --- | --- | --- | --- | --- | --- | --- | --- | --- | --- | --- | --- | --- | --- | --- |
| CCCCCC=CCC=CCCCCCCCCC(CCCCCCCCC=CCC=CCCCCC)OC(=O)CCCN(C)C (centres unmarked) [MC3, heptatriaconta-6,9,28,31-tetraen-19-yl 4-(dimethylamino)butanoate, reference compound] | ALT and AST were elevated and pathology showed evidence of necrosis | 1 | 1.7127E+10 (p/s)*h | 97.3 ± 1.9 | 0.11 ± 0.04 | 80 | >98 | 79.7 | 85400 | 67400 | 54 | – | – | – | – | – | – | – | – | – |
| CCCCCCCCCOC(=O)CCCCCCCN(CCO)CCCCCCCC(=O)OC(CCCCCCCC)CCCCCCCC [Compound 18, Heptadecan-9-yl 8-((2-hydroxyethyl)(8-(nonyloxy)-8-oxooctyl)amino)octanoate] | – | – | – | – | – | – | – | – | – | – | – | Efficient expression; also recorded: Consistent exposure | rapid clearance | almost complete loss in expression | 4.26 | 5.8 | slight variation above baseline | at the same level as the control | consistent exposures | minimal findings at all dose levels |

— patent publication US10857105B2, “Compounds and compositions for intracellular delivery of therapeutic agents” (ModernaTX, Inc., priority 2017, dated 2020)
